Results from the NIST ThermoML archive (doi:10.1021/acs.jced.8b01202).
Several values for one entry are separate records, joined by “and”; a condition that tells them apart may be missing. Equal values may be shown once. Numbers after ± are expanded uncertainties.

Key:
[1] = 298.2 K; 101.33 kPa; Liquid; Vibrating tube method
[2] = refractive index (Na D-line) (dimensionless); conditions: 298.2 K; 101.33 kPa; Liquid; Standard Abbe refractometry
[3] = refractive index (Na D-line) (dimensionless); wn = mass fraction of the nth substance listed; conditions: 298.2 K, 81.5 kPa, Liquid, Standard Abbe refractometry

mass density [1] [kg/m3] | refractive index [2] | refractive index ([3]; w2 = 0.0006) | refractive index ([3]; w2 = 0.0008) | refractive index ([3]; w2 = 0.0009) | refractive index ([3]; w2 = 0.001) | refractive index ([3]; w2 = 0.0016) | refractive index ([3]; w2 = 0.9996) | SMILES
857.54 ± 1.7 | 1.49005 ± 0.0014 |  |  |  |  |  |  | CC(C)c1ccccc1 [isopropylbenzene]
 |  | 1.48845 ± 0.0014 | 1.48875 ± 0.0014 and 1.48855 ± 0.0014 | 1.49001 ± 0.0014 | 1.4885 ± 0.0014 | 1.48855 ± 0.0014 | 1.333 ± 0.0014 | CC(C)c1ccccc1 [isopropylbenzene] + O
 | 1.3325 ± 0.0014 |  |  |  |  |  |  | O [water]
